From patent publication US5120752A, “Cyclopropyl derivative lipoxygenase inhibitors” (Abbott Laboratories, priority 1990, dated 1992)

Legend:
[1] = test system: LTB4 biosynthesis in human whole blood; assay: Inhibition of calcium ionophore-induced LTB4 biosynthesis in human whole blood; format: cell-based; details: for IC50: A23187 50 μM, 15 min preincubation, read-out: Inhibition of Leukotriene Biosynthesis IC50; for inhibition at 0.2 µM: read-out: Inhibition of Leukotriene Biosynthesis (% at 0.2 μM)
Procedure: Inhibition of leukotriene biosynthesis was evaluated in an assay, involving calcium ionophore-induced LTB4 biosynthesis expressed by human whole blood. Heparinized (20 U/mL) human blood (0.3 mL) was preincubated with test compound or vehicle for 15 min. at 37° C. Eicosanoid biosynthesis was initiated by adding calcium ionophore (A23187) in DMSO to a final concentration of 50 μM and terminated after 30 min. by rapid cooling of the blood in an ice bath and centrifuging at 3° C. for 10 min at 2500×g. The plasma was mixed with 4 volumes of methanol and allowed to stand for at least 30 min. at 3° C. prior to centrifuging at 1800×g for 10 min. The level of LTB4 in aliquots of the methanol-plasma extract was analyzed by radio-immunoassay or enyme-immunoassay techniques.

leukotriene biosynthesis = assay: Inhibition of leukotriene biosynthesis in vivo after oral administration, rat peritoneal anaphylaxis model; details: 100 μmol/kg oral (gavage), 1 h before antigen challenge, read-out: % Inhibition of Leukotrienes at 100 μmol/kg oral dose
Procedure: Inhibition of the biosynthesis of leukotrienes in vivo after oral administration of representative test compounds of this invention was determined using a rat peritoneal anaphylaxis model in a similar manner as that described by Young and coworkers (Young, P. R.; Dyer, R. D.; Carter, G. W. Fed. Proc., Fed. Am. Soc. Exp. Biol. 1985, 44, 1185). In this model rats were injected intraperitoneally (ip) with rabbit antibody to bovine serum albumin (BSA) and three hours later injected ip with BSA to induce an antgen-antibody response. Rats were sacrificed 15 minutes after this challenge and the peritoneal fluids were collected and analyzed for leukotriene levels. Test compounds were administered by gavage one hour prior to the antigen challenge. Percent inhibition values were determined by comparing the treatment group to the mean of the control group. The results of this assay, for representative compounds of the present invention, at an oral dose level of […] are presented in Table 2, and at an oral dose of […] in Table 3.

Row | IC50 [1] | SMILES | inhibition in vivo at 100 µmol/kg (leukotriene biosynthesis) | inhibition at 0.2 µM [1] | inhibition at 0.1 µM ([1]; 0.1 μM, read-out: Inhibition of Leukotriene Biosynthesis (% at 0.1 μM))
1 | 140 nM | Cc1cccc(Oc2cccc([C@@H]3C[C@H]3CN(O)C(N)=O)c2)c1 (relative stereo) [Example 174, N-(1-trans-(2-(3-(3-methylphenoxy)phenyl)cyclopropyl)methyl)-N-hydroxyurea] | 96% |  | 
2 | 50 nM | NC(=O)N(O)C[C@@H]1C[C@H]1c1cccc(Oc2cccnc2)c1 (relative stereo) [Example 168, N-(1-trans-(2-(3-(3-pyridyloxy)phenyl)cyclopropyl)methyl)-N-hydroxyurea] | 99% |  | 
3 | 370 nM | NC(=O)N(O)C[C@@H]1C[C@H]1c1cccs1 (relative stereo) [Example 194, N-(1-trans-(2-(2-thienyl)cyclopropyl)methyl)-N-hydroxyurea] | 97% |  | 
4 |  | CNC(=O)N(O)C[C@@H]1C[C@H]1c1cccc(Oc2ccc(C)cc2)c1 (relative stereo) [Example 179, N-(1-trans-(2-(3-(4-methylphenoxy)phenyl)cyclopropyl)methyl)-N-hydroxy-N'-methylurea] | 61% | 61% | 
5 | 110 nM | NC(=O)N(O)C[C@@H]1C[C@H]1c1cccc(Oc2nccs2)c1 (relative stereo) [Example 166, N-(1-trans-(2-(3-(2-thiazolyloxy)phenyl)cyclopropyl)methyl)-N-hydroxyurea] | 91% |  | 
6 | 690 nM | Cc1ccc(Oc2cccc([C@@H]3C[C@H]3C(C)N(O)C(N)=O)c2)cc1 (stereo partly drawn) [Example 180, N-(1-trans-(2-(3-(4-methylphenoxy)phenyl)cyclopropyl)ethyl)-N-hydroxyurea] | 85% |  | 
7 |  | Cc1ccccc1Oc1cccc([C@@H]2C[C@H]2CN(O)C(N)=O)c1 (relative stereo) [Example 170, N-(1-trans-(2-(3-(2-methylphenoxy)phenyl)cyclopropyl)methyl)-N-hydroxyurea] | 94% |  | 89%
8 | 170 nM | CCCc1ccc(Oc2cccc([C@@H]3C[C@H]3CN(O)C(N)=O)c2)cc1 (relative stereo) [Example 169, N-(1-trans-(2-(3-(4-propylphenoxy)phenyl)cyclopropyl)methyl)-N-hydroxyurea] | 98% |  | 
9 | 970 nM | NC(=O)N(O)C[C@@H]1C[C@H]1c1ccco1 (relative stereo) [Example 198, N-(1-trans-(2-(2-furanyl)cyclopropyl)methyl)-N-hydroxyurea] | 90% |  | 
10 | 680 nM | CC([C@@H]1C[C@H]1c1ccsc1)N(O)C(N)=O (stereo partly drawn) [Example 189, N-(1-trans-(2-(3-thienyl)cyclopropyl)ethyl)-N-hydroxyurea] | 73% |  | 
11 | 170 nM | CCc1ccc(Oc2cccc([C@@H]3C[C@H]3CN(O)C(N)=O)c2)cc1 (relative stereo) [Example 176, N-(1-trans-(2-(3-(4-ethylphenoxy)phenyl)cyclopropyl)methyl)-N-hydroxyurea] | 87% |  | 
12 | 320 nM | NC(=O)N(O)C[C@@H]1C[C@H]1c1ccsc1 (relative stereo) [Example 188, N-(1-trans-(2-(3-thienyl)cyclopropyl)methyl)-N-hydroxyurea] | 97% |  | 
13 | 250 nM | Cc1cccc(Oc2cccc([C@@H]3C[C@H]3CN(O)C(N)=O)c2)n1 (relative stereo) [Example 163, N-(1-trans-(2-(3-(6-methyl-2-pyridyloxy)phenyl)cyclopropyl)methyl)-N-hydroxyurea] |  |  | 
14 | 170 nM | NC(=O)N(O)C[C@@H]1C[C@H]1c1cccc(Oc2ccc(OCCO)cc2)c1 (relative stereo) [Example 161, N-(1-trans-(2-(3-(4-(2-hydroxyethoxy)phenoxy)phenyl)cyclopropyl)methyl)-N-hydroxyurea] |  |  | 
15 | 830 nM | CNC(=O)N(O)C(C)[C@@H]1C[C@H]1c1ccoc1 (stereo partly drawn) [Example 191, N-(1-trans-(2-(3-furanyl)cyclopropyl)ethyl)-N-hydroxy-N'-methylurea] |  |  | 
16 |  | NC(=O)N(O)C[C@@H]1C[C@H]1c1cccc(Oc2cccs2)c1 (relative stereo) [Example 178, N-(1-trans-(2-(3-(2-thienyloxy)phenyl)cyclopropyl)methyl)-N-hydroxyurea] | 60% | 64% | 
17 | 230 nM | NC(=O)N(O)C[C@@H]1C[C@H]1c1ccoc1 (relative stereo) [Example 193, N-(1-trans-(2-(3-furanyl)cyclopropyl)methyl)-N-hydroxyurea] | 93% |  | 
18 | 1200 nM | CC([C@@H]1C[C@H]1c1ccoc1)N(O)C(N)=O (stereo partly drawn) [Example 192, N-(1-trans-(2-(3-furanyl)cyclopropyl)ethyl)-N-hydroxyurea] | 71% |  | 
19 | 40 nM | CCOc1ccc(Oc2cccc([C@@H]3C[C@H]3CN(O)C(N)=O)c2)cc1 (relative stereo) [Example 167, N-(1-trans-(2-(3-(4-ethoxyphenoxy)phenyl)cyclopropyl)methyl)-N-hydroxyurea] | 94% |  | 
